Experimental data as given in PMC7689640, “Analysis of the efficacy of HIV protease inhibitors against SARS-CoV-2′s main protease” (Virology Journal, 2020).
Where two headings read alike, the source gives them in different places.

What was measured:
[1] = target: SARS-CoV-2 M^pro (Severe acute respiratory syndrome coronavirus 2, UniProt P0DTD1); test: Inhibition profiling in cell culture (dark-to-bright GFP reporter substrate, flow cytometry); assay type: cell-based; settings: for Inhibition of SARS-CoV-2 M^pro in cell culture: 200 micromolar concentration of the inhibitors, HEK-293 T cells
[2] = patient's serum under antiretroviral treatment; cited from earlier work
[3] = test system: HEK-293 T cells; test: Cell viability assay (MTT); settings: for Cytotoxicity: HEK-293 T cells; for Tolerability by HEK-293 T cells: high concentrations
[4] = test system: SARS-associated coronavirus; settings: combination of lopinavir/ritonavir and ribavirin; cited from earlier work
[5] = test system: MERS-CoV; settings: Calu-3 cells; cited from earlier work
[6] = test system: SARS-CoV-2; design: method as in PMID 32147628; settings: in vitro; cited from earlier work
[7] = test system: SARS-CoV-2; settings: Vero E6 cells; cited from earlier work
[8] = HEK-293 T cells co-transfected with CoV-2 M^pro and PR-Sub plasmids, 24 h, GFP fluorescence, triplicate experiments, read-out: IC50

With `CCC[C@@]1(CCc2ccccc2)CC(O)=C([C@H](CC)c2cccc(NS(=O)(=O)c3ccc(C(F)(F)F)cn3)c2)C(=O)O1` [Tipranavir, tipranavir] the “Inhibition of SARS-CoV-2 M^pro in cell culture” value [1] was “failed to inhibit” and the IC50 [1, 8] was greater than 200 µM.
For `CC(C)(C)NC(=O)[C@@H]1C[C@@H]2CCCC[C@@H]2CN1C[C@@H](O)[C@H](Cc1ccccc1)NC(=O)[C@H](CC(N)=O)NC(=O)c1ccc2ccccc2n1` [Saquinavir, saquinavir], the “Minimum concentration (Cmin)” value [2] is given as 3.8 µM, the IC50 [1] is given as 31.4 µM and the Cytotoxicity ([3]; concentrations above 50 µM) is given as greater than 50%.
For `COC(=O)N[C@H](C(=O)N[C@@H](Cc1ccccc1)[C@@H](O)CN(Cc1ccc(-c2ccccn2)cc1)NC(=O)[C@@H](NC(=O)OC)C(C)(C)C)C(C)(C)C` [Atazanavir, atazanavir], the “Minimum concentration (Cmin)” value [2] is listed as less than 1 µM, the IC50 [1, 8] is listed as 60.7 µM and the Cytotoxicity ([3]; concentration of 200 µM) is listed as “cytotoxicity was not observed”. The “Tolerability by HEK-293 T cells” value [3] was “well tolerated”.
With `Cc1c(O)cccc1C(=O)N[C@@H](CSc1ccccc1)[C@H](O)CN1C[C@H]2CCCC[C@H]2C[C@H]1C(=O)NC(C)(C)C` [Nelfinavir, nelfinavir] the IC50 [1] was greater than 200 µM and the “Inhibition of SARS-CoV-2 M^pro in cell culture” value [1] was “failed to inhibit”.
For `NC(=O)c1ncn([C@@H]2O[C@H](CO)[C@@H](O)[C@H]2O)n1` [ribavirin], the “Concentration effective against SARS-associated coronavirus” value [4] is given as 50 µg/mL.
For `Cc1cccc(C)c1OCC(=O)N[C@@H](Cc1ccccc1)[C@@H](O)C[C@H](Cc1ccccc1)NC(=O)[C@H](C(C)C)N1CCCNC1=O` [Lopinavir, lopinavir], the IC50 [5] is given as 11.6 µM, the IC50 [1] is given as “Indeterminable” and the Cytotoxicity ([3]; concentrations above 50 µM) is given as 90%.
In the case of `CC(C)CN(C[C@@H](O)[C@H](Cc1ccccc1)NC(=O)O[C@H]1CO[C@H]2OCC[C@H]21)S(=O)(=O)c1ccc(N)cc1` [Darunavir, darunavir], the IC50 ([1]; read-out: IC50) is given as 36.1 µM, the “Tolerability by HEK-293 T cells” value [3] is given as “well tolerated” and the “Concentration inhibiting SARS-CoV-2 replication” value [6] is given as 300 µM.
In the case of `CC(C)c1nc(CN(C)C(=O)N[C@H](C(=O)N[C@@H](Cc2ccccc2)C[C@H](O)[C@H](Cc2ccccc2)NC(=O)OCc2cncs2)C(C)C)cs1` [Ritonavir, ritonavir], the IC50 [5] is listed as 24.9 µM, the “Inhibition of viral replication” value [7] is listed as “no inhibition of viral replication” and the Cytotoxicity ([3]; concentrations above 50 µM) is listed as greater than 50%.
